The text below walks through data of patent US4547508A, “1-Phenylisoquinoline derivatives, pharmaceutical products containing these compounds and their use” (Hoechst Aktiengesellschaft, priority 1982, dated 1985).

Usually LD50 stands for the dose at which mortality reaches 50%. Broadly, the ED50 is the dose that gives a 50% effect, or the effect in half of the subjects. Lower therefore signals greater potency. The term IC50 denotes the midpoint of a concentration-inhibition curve.

Data set [1] in a line: Acute toxicity in the mouse after intraperitoneal administration (ALD50). Also on record: species or system male mice (Gassner, NMRI). As to conditions: in vivo, ip, deaths within 24 hours after administration. As to the method: A. Acute toxicity in the mouse after intraperitoneal administration (ALD50)
The experimental animals used were male mice (Gassner, NMRI) of body weight 20-30 g. 6 animals were tested in each group. The compounds were suspended in 1% strength methylhydroxyethylcellulose (MH) and administered intraperitoneally (i.p.) to the animals in a volume of 10 ml/kg of body weight. The compounds according to the invention were administered in doses of 3, 10, 30 and 100 mg/kg i.p.
The acute lethal dose (ALD50) was determined graphically from the number of animals which died within 24 hours after administration of the compound.

The test system of data set [2] is tetrabenazine-induced ptosis. As to the kind of experiment: Prevention of the ptosis induced by tetrabenazine in mice after intraperitoneal administration. As to conditions: ip; mouse, i.p., 30 minutes before TBZ 40 mg/kg i.p.; dose which reduces the mean ptosis index (maximum 4) by 50%. The format is in vivo, male mice (Gassner, NMRI). As to the method:
B. Prevention of the ptosis induced by tetrabenazine in mice after intraperitoneal administration
The experimental animals used were male mice (Gassner, NMRI) of body weight 20-26 g. 5 animals were tested in each group. The compounds were suspended in 1% strength methylhydroxyethylcellulose and administered intraperitoneally (i.p.) to the animals in a volume of 10 ml/kg of body weight. The compounds according to the invention were tested in doses of 5, 10 and 20 mg/kg i.p. The control group merely received 10 ml/kg of MH not containing active ingredient i.p.
The componds were administered to the animals 30 minutes before the i.p. administration of tetrabenazine (TBZ). The control group merely received 1% strength MH and TBZ in accordance with the same schedule as that for the animals treated with the test substances.
30 minutes after the TBZ injection (TBZ: 40 mg/kg i.p.), the animals were placed in individual plastic boxes and the ptosis was assessed 1 minute later in accordance with the scheme below:
Eyes closed = 4 (100% ptosis)
Eyes 3/4 closed = 3 (75% ptosis)
Eyes 1/2 closed = 2 (50% ptosis)
Eyes 1/4 closed = 1 (25% ptosis)
Eyes open = 0 (0% ptosis)
The dose defined as the ED50 is that which reduces the mean ptosis index (maximum 4) by 50%.

Data set [3] relates to norepinephrine uptake (synaptosomes from rat brain). As to the kind of experiment: Inhibition of reuptake of norepinephrine in synaptosomes. The format is biochemical. The note with it: 14C-norepinephrine, pH 7.4, 37° C., 4 minutes. The procedure:
C. Inhibition of reuptake of norepinephrine in synaptosomes
Synaptosomes from rat brain were isolated by the method of Whittaker (Handbook of Neurochemistry 2, 327-364, Editor A. Lajtha; London and New York, 1969) and the uptake of monoamine was measured by the method of Schacht and Heptner (Biochemical Pharmac. 23, 3413-3422). The ^14 C-norepinephrine uptake was measured in a Krebs-Henseleit bicarbonate buffer pH 7.4 which contained 11 millimoles of glucose. 2.5 ml of the suspension of synaptosomes were incubated with labeled norepinephrine at 37° C. in the presence or absence of the test substance. The incubation time was 4 minutes. Further uptake was then stopped by cooling in ice. In order to exclude non-specific adsorption, control samples were incubated at 0° C. under otherwise identical conditions.
The amounts of norepinephrine taken up were measured using the membrane filtration technique using a Millipore sampling manifold with cellulose nitrate filters of 25 mm diameter and 0.6 micrometer pore size. The synaptosomes were collected under reduced pressure and the radioactivity was determined in a Packard Tricarb scintillation counter. The amount of collected norepinephrine has been reported as a percentage of the radioactivity which was added to the incubation mixture.
The IC50 values (inhibition concentration) in the Table 1 below indicate the concentration of the test substances which show 50% inhibition of the uptake of ^14 C-norepinephrine.

As to `CCN1CC=C(c2cc3ccccc3c(-c3ccccc3C)n2)CC1` [Example 2, 3-(1-Ethyl-1,2,5,6-tetrahydro-4-pyridyl)-1-(2-methylphenyl)isoquinoline], in data set [1], the median lethal dose (LD50) at 24 h stood at 100 mg/kg. Moreover, the 50% effect level in data set [2] (ED50) was put at a dose of 1.4 mg/kg.
As for `Cc1ccccc1-c1nc(C2=CCNCC2)cc2ccccc12` [Example 3, 1-(2-Methylphenyl)-3-(1,2,5,6-tetrahydro-4-pyridyl)isoquinoline], the 50% lethal dose (LD50) at 24 h in data set [1] came to 210 mg/kg. In data set [3], this compound came in with a 50% inhibitory concentration (IC50) of 5.6 nM. Also, the ED50 in data set [2] was determined as 0.13 mg/kg.
In data set [1], `CN1CC=C(c2cc3ccccc3c(-c3ccccc3Cl)n2)CC1` [Example 6] displayed an LD50 at 24 h of 100 mg/kg. Also, the IC50 in data set [3] is 33 nM. In data set [2], the 50% effect level (ED50) was put at a dose of 0.79 mg/kg.
Consider `CN1CC=C(c2cc3ccccc3c(-c3ccccc3F)n2)CC1` [Example 8], for which the LD50 at 24 h in data set [1] amounted to 85 mg/kg. The compound further came in with an IC50 in data set [3] of 10 nM. Further, the median effective dose (ED50) in data set [2] was 0.54 mg/kg.
`C=CCN1CC=C(c2cc3ccccc3c(-c3ccccc3C)n2)CC1` [Example 11]: in data set [1], the LD50 at 24 h was 300 mg/kg. In data set [2], this compound registered a median effective dose (ED50) of 0.49 mg/kg.
For `C1=C(c2cc3ccccc3c(-c3ccccc3)n2)CCNC1` [Example 13], the 50% lethal dose (LD50) at 24 h in data set [1] was 300 mg/kg. This compound returned an IC50 in data set [3] of 6.2 nM. Further, the 50% effective dose (ED50) in data set [2] is 0.5 mg/kg.
Regarding `CN1CCC=C(c2cc3ccccc3c(-c3ccccc3)n2)C1` [Example 19], the median lethal dose (LD50) at 24 h in data set [1] was determined as 40 mg/kg. The compound further returned a 50% inhibitory concentration (IC50) in data set [3] of 50 nM. For the same compound, the ED50 in data set [2] was found to be 3.3 mg/kg.
On the same counts, the results for `C1=C(c2cc3ccccc3c(-c3ccccc3)n2)CNCC1` [Example 20] are 75 mg/kg, 13 nM and 0.33 mg/kg.
The corresponding values for `c1ccc(-c2nc(C3CCNCC3)cc3ccccc23)cc1` [Example 21, 1-Phenyl-3-(4-piperidinyl)isoquinoline] are 75 mg/kg, 17 nM and 0.8 mg/kg.
As for `C=CCN1CCC(c2cc3ccccc3c(-c3ccccc3C)n2)CC1` [Example 23, 3-(1-Allyl-4-piperidinyl)-1-(2-methylphenyl)isoquinoline], in data set [1], the LD50 at 24 h worked out at 55 mg/kg. Also, the ED50 in data set [2] amounted to 3 mg/kg.
`CN1CCC(c2cc3ccccc3c(-c3ccccc3)n2)CC1` [Example 25] returned an LD50 at 24 h in data set [1] of 28 mg/kg. This compound also had an ED50 in data set [2] of 6.59 mg/kg.
Turning to `Cc1ccccc1-c1nc(C2CCN(C)CC2)cc2ccccc12` [Example 27], the median lethal dose (LD50) at 24 h in data set [1] was 27 mg/kg. The compound also yielded an ED50 in data set [2] of 0.53 mg/kg.
